Test results from ChEMBL document CHEMBL1201862, “PubChem BioAssay data set” (2004).
Several values for one entry are separate records, joined by “and”; a condition that tells them apart may be missing. Equal values may be shown once. Activity calls are given as the source filed them.

What was measured:
[1] = HEp-2 cell cytotoxicity, dose response, cytotoxicity control for RSV inhibitor project, HTS (AID 2410); type: functional; details: human respiratory syncytial virus
[2] = target: T1, Ubiquitin-conjugating enzyme E2 N (Homo sapiens, UniProt P61088); type: functional;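 also: Dose-response confirmation in a TR-FRET assay detecting UBC13-driven polyubiquitin chain formation, inhibition measured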
T1 sequence (P61088 whole entry): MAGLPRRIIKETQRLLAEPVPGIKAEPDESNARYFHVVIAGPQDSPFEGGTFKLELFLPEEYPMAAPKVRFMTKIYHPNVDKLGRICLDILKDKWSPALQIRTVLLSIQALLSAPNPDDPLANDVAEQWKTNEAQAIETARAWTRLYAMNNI

[3] = target: FAD-linked sulfhydryl oxidase ALR (Homo sapiens, UniProt P55789); assay: inhibitors of human ALR sulfhydryl oxidase, dose response, biochemical, H2O2 detection, luminescence, cherry-pick (AID 493248)
[4] = test system: Streptococcus sp. 'group A'; assay: growth inhibition of control SK(-) GAS strain, dose response, counter-screen for streptokinase expression inhibitor project, luminescence, kanamycin, BacTiterGlo, confirmation (AID 1900); type: functional, organism-based
Streptokinase A = target: T2, Streptokinase A (Streptococcus pyogenes serotype M1, UniProt P10520); assay: S. pyogenes streptokinase expression inhibitors, potency, dose response, plasminogen activation absorbance, OD405 (AID 1914); type: functional, Streptococcus pyogenes M1 GAS;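 also: secreted streptokinase activity via plasminogen activation per viability signal from cell pellet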
T2 sequence (P10520 whole entry): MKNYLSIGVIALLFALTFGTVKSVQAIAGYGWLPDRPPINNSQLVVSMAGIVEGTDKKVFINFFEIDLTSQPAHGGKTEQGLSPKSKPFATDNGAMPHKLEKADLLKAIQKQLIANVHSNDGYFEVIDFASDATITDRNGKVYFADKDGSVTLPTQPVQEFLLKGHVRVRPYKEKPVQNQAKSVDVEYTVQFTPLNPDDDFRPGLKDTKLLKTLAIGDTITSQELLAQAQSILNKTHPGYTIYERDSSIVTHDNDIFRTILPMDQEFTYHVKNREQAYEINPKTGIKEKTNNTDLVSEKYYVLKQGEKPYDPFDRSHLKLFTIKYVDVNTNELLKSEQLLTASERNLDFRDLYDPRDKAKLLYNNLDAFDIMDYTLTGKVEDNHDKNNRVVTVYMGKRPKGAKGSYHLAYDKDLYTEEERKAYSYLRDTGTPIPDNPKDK

[5] = inhibitors of intracellular T. cruzi replication, confirmation, NIH3T3 host cells, beta-gal luminescence (AID 2044); type: functional, cell-based;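 also: intracellular parasites grown in NIH/3T3 mouse fibroblasts as host cells; luminescent beta-galactosidase reporter signal from transgenic T. cruzi replicating inside host cells; inhibitors lower the luminescence signal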
[6] = cytotoxicity toward NIH3T3 fibroblasts, dose response, counter-screen, cell-based, ATP luminescence, mouse fibroblasts (AID 2010); type: functional;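 also: cells exposed to compound for about 90 hours before reading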
Streptococcus = assay: Group A Streptococcus viability loss, dose response, counter-screen for streptokinase expression inhibitor project, luminescence, BacTiterGlo (AID 1915); type: functional, organism-based;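 also: potency for reduction of bacterial viability or growth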
Large T antigen = Large T antigen (Simian virus 40, UniProt P03070); type: functional, Betapolyomavirus macacae;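 also: Confirmatory-stage PubChem screen for compounds that inhibit SV40 T antigen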
H9c2 = assay: cells; type: functional, cell-based; details: Rattus norvegicus, H9c2, Myocardium
[7] = growth suppression of PTEN-null colon cells, dose response, cell-based, HCT116 PTEN knockout (AID 1047); type: functional;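 also: HCT116 colon tumor cells with PTEN knocked out; cells exposed to compound for 60 hours before readout; potency for loss of cell viability measured by luminescence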
[8] = growth suppression of beta-catenin-knockout colon cells, dose response, cell-based, HCT116, human colon tumor (AID 1045); type: functional;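 also: HCT116 colon tumor cells with beta catenin knocked out; cells exposed to compound for 60 hours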
[9] = target: T3, Corticotropin-releasing factor receptor 2/Corticotropin-releasing factor-binding protein (Homo sapiens, UniProt P24387+Q13324); assay: Dose Response confirmation of uHTS hits for small molecule antagonists of the CRF-binding protein and CRF-R2 receptor complex.; type: functional; details: read-out: IC50_Mean
T3 sequence (Q13324 whole entry): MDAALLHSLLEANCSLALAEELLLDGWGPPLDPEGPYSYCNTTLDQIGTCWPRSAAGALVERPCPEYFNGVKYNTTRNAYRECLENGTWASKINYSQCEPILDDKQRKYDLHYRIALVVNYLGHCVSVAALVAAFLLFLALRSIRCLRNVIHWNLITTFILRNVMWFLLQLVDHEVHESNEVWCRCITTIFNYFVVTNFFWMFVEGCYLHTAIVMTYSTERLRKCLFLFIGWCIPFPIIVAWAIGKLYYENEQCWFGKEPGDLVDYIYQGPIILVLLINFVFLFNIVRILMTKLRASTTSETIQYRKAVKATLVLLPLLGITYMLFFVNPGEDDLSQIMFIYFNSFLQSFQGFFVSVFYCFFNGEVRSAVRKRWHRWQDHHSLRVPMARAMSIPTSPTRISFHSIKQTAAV
T3 sequence (P24387 whole entry): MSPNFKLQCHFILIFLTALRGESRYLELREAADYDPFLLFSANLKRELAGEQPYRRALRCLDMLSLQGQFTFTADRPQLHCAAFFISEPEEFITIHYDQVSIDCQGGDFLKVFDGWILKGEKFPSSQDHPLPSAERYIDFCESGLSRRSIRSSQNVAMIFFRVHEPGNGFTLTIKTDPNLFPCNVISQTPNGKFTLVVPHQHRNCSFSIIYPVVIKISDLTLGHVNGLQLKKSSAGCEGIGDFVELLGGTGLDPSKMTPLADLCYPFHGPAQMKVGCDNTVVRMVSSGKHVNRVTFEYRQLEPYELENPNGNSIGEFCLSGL

[10] = target: T3, Corticotropin-releasing factor receptor 2/Corticotropin-releasing factor-binding protein; assay: activators of CRF receptor 2 with binding protein – uHTS hits, confirmation (AID 602473); type: functional; details: read-out: EC50_Mean
[11] = target: T4, Rac GTPase-activating protein 1 (Homo sapiens, UniProt Q9H0H5); assay: MgcRacGAP GTPase-activating activity inhibitors, confirmation, biochemical, ADP Hunter fluorescence, primary and confirmatory (AID 624330); type: functional
T4 sequence (Q9H0H5 whole entry): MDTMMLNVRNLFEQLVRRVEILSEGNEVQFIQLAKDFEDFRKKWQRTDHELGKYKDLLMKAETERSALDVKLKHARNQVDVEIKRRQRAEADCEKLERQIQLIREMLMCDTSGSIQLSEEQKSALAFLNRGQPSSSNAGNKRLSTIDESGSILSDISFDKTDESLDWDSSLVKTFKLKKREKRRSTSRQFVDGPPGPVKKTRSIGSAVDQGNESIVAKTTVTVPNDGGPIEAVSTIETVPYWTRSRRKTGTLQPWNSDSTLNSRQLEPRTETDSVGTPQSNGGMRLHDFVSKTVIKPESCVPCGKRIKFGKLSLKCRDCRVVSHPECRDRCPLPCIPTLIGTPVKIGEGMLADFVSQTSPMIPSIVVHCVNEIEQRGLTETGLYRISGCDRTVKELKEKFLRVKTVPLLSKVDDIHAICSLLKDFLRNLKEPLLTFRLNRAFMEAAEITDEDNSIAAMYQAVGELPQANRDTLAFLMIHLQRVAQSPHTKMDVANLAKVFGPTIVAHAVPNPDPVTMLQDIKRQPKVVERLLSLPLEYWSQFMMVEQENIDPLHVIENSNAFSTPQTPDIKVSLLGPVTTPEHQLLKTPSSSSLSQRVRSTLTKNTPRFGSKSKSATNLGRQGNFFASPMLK

[12] = target: T5, Heat shock factor protein 1 (Mus musculus, UniProt P38532); assay: HSF1 potentiators in luciferase reporter cells, confirmation, cell-based, NIH3T3, luminescence, dose retest (AID 435004); type: functional;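 also: stress induced by proteasome inhibitor MG132 added 30 min after compound; luciferase reporter driven by HSF1 response element in NIH3T3 cells; actives raise luminescence as potentiators of the MG132 stress response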
T5 sequence (P38532 whole entry): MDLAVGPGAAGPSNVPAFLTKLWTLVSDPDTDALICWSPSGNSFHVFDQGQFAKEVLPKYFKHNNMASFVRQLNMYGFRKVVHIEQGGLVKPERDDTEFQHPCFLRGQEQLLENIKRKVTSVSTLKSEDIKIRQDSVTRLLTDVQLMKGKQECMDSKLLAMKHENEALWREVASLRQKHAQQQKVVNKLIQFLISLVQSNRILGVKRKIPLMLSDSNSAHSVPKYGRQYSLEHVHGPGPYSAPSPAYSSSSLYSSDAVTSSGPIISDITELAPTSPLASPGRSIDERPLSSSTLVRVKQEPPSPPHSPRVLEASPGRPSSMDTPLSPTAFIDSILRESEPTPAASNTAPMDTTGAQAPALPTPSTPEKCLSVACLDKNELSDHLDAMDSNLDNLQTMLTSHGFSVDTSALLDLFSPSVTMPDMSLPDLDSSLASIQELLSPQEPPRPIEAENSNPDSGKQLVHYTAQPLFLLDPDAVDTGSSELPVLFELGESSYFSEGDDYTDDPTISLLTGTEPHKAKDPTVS

[13] = Shn3 3'UTR reporter inhibitors, dose response, cell-based, Clone20 osteoblasts, firefly luciferase, cherry-picked (AID 624132); type: functional;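 also: firefly luciferase luminescence from reporter carrying the Shn3 3'UTR in osteoblasts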

Sequence of FAD-linked sulfhydryl oxidase ALR (P55789 whole entry): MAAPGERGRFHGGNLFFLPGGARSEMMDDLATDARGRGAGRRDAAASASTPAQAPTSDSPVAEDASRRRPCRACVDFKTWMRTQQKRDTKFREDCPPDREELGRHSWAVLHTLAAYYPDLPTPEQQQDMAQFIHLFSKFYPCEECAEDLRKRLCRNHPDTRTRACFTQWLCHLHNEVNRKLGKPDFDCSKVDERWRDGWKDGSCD
Sequence of Large T antigen (P03070 whole entry): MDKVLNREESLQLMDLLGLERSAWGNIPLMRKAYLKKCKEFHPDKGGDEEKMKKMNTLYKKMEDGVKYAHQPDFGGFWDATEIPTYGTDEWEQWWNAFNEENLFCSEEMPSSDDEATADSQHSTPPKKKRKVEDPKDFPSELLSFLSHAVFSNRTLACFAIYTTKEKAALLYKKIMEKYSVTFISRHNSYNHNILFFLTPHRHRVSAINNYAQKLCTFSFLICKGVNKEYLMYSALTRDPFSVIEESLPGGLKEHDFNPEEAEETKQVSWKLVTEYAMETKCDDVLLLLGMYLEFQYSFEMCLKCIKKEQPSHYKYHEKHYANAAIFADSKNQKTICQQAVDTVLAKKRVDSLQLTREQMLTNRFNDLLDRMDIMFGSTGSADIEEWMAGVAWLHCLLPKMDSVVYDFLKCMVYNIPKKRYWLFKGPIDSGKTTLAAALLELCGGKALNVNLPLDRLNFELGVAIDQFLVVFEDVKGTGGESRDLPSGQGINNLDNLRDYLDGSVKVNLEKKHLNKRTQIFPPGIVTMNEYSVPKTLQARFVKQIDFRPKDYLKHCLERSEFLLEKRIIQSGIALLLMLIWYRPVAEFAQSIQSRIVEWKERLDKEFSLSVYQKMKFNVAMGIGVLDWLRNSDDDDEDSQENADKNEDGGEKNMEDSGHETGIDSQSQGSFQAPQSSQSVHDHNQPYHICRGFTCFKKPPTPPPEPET

## CNCC(O)c1cc(OCc2ccccc2)c(OCc2ccccc2)cc1F (configuration not stated)
[1]
  CC50: 22.3 µM (active)
[2]
  IC50: > 20 µM (inactive)

## O=C(NCCSc1c[nH]c2ccccc12)C1CC1
[3]
  AC50: 8.01 µM (active)

## CCCCNC(=O)c1onc(CSc2ccc(C)c(C)c2)c1C(=O)O
[3]
  AC50: 8.26 µM (active)

## O=C(C[N+]1=C2SC=C(c3ccccc3)N2CC1)c1ccc(Br)cc1
[3]
  AC50: 0.221 µM (active)

## C=CCn1c(NC(=O)c2ccc(C)cc2)nc2ccccc21
[4]
  EC50: 84.6 µM (active)
Streptokinase A
  EC50: > 150 µM (not active)
[5]
  EC50: 2.11 µM (active)
[6]
  EC50: > 60 µM (not active)
Streptococcus
  EC50: > 150 µM (not active)
[2]
  IC50: > 20 µM (inactive)

## O=S(=O)(NNc1ccc(F)cc1F)c1cccc(Cl)c1
[3]
  AC50: 1.35 µM (active)

## CC(=O)Oc1ccc(C(=O)OCC(=O)c2c(N)n(C)c(=O)n(C)c2=O)cc1OC(C)=O
Large T antigen
  IC50: 8.56 µM (active)
H9c2
  IC50: 6.29 µM (active)

## CCN(CC)S(=O)(=O)c1cc(C(=O)Nc2cc(Cl)ccc2N2CCN(C)CC2)ccc1Cl
[7]
  EC50: 13.3 µM (active)
[8]
  EC50: 15.8 µM (active)

## Cc1ccc(C23CC4CC(CC(NC(=O)NCCN(C)C)(C4)C2)C3)cc1
[5]
  EC50: 0.948 µM (active)
[7]
  EC50: 20.9 µM (active)
[6]
  EC50: > 60 µM (not active)
[8]
  EC50: 17.9 µM (active)

## Cc1cccc2sc(N(CCN3CCOCC3)C(=O)CCS(=O)(=O)c3ccccc3)nc12
[2]
  IC50: > 20 µM (inactive)

## N#Cc1c(N)nc(SC2CCCCC2=O)c(C#N)c1-c1ccco1 (configuration not stated)
[9]
  IC50: < 0.368 µM (active)
[10]
  EC50: > 53 µM (inactive)

## CN(C)c1ccc(NS(=O)(=O)c2ccc(Cl)cc2)cc1
Large T antigen
  IC50: 11.7 µM (active)
[11]
  IC50: 30.6 µM (active)

## Cc1cccc(OCC(O)CN2CCN(CCN3C(=O)c4cccc5cccc(c45)C3=O)CC2)c1C (configuration not stated)
[5]
  EC50: 2.14 µM (active)
[6]
  EC50: 8.54 µM (active)
[2]
  IC50: > 20 µM (inactive)

## CC(=O)N1CCC2(CC1)NC(=O)N(c1ccccc1)N2
[12]
  EC50: 136 µM (active)
[3]
  AC50: 5 µM (active)

## Cc1ccnc(-n2c(C)cc(/C=C3\C(=O)NC(=S)N(C)C3=O)c2C)c1
[7]
  EC50: 95.3 µM (active)
[8]
  EC50: 65.8 µM (active)

## Cc1ccc(S(=O)(=O)N2CCCC(C(=O)NNCC(=O)Nc3cc(F)ccc3F)C2)cc1 (configuration not stated)
[2]
  IC50: > 20 µM (inactive)

## O=C(NCCCn1ccnc1)c1nn2c(C(F)(F)F)cc(-c3ccc(Br)cc3)nc2c1Cl
[7]
  EC50: 16.8 µM (active)
[8]
  EC50: 33.2 µM (active)

## Cc1ccc[n+](CC(=O)Nc2ccc(N(C)C)cc2)c1
[3]
  AC50: 2.2 µM (active)
[11]
  IC50: 113 µM (active)

## CCCn1nc(C(=O)Nc2cc(S(=O)(=O)Nc3ccc(OC)cc3)ccc2O)c2ccccc2c1=O
[9]
  IC50: > 47.1 µM (inactive)
[10]
  EC50: > 53 µM (inactive)

## Cc1ccc(OC(=O)CCC(=O)Oc2ccc(C)cc2C)c(C)c1
[13]
  AC50: 3.51 µM (active)

## O=C(CC(NC(=O)OCc1ccccc1)C(=O)OCc1ccccc1)OCc1ccccc1 (configuration not stated)
[9]
  IC50: > 47.1 µM (inactive)
[10]
  EC50: > 53 µM (inactive)

## Cc1ccc(C)c(S(=O)(=O)Nc2ccc(-n3cnnn3)cc2)c1
[13]
  AC50: > 70 µM (inactive)

## COc1ccccc1NC(=O)c1c(/N=C/c2c(O)ccc3ccccc23)cnn1C
[2]
  IC50: > 20 µM (inactive)

## COc1cc(/C=N/c2c(C)cc(C)cc2C)ccc1OC(C)=O
[9]
  IC50: > 47.1 µM (inactive)
[10]
  EC50: > 53 µM (inactive)

## Oc1ccc(N/C(S)=N/c2ccccc2)cc1
Large T antigen
  IC50: 5.61 µM (active) and 8.33 µM (active)
[12]
  EC50: > 260 µM (inactive)
[11]
  IC50: 32.9 µM (active)

## COc1cc(/C=N/NC(=O)C(C)n2nnc3ccccc32)ccc1O (configuration not stated)
Large T antigen
  IC50: 19.8 µM (active)
[3]
  AC50: 0.332 µM (active)
[11]
  IC50: 25.5 µM (active)

## Sc1nnc(-c2[nH]nc3c2CCC3)n1/N=C/C=C/c1ccco1
Large T antigen
  IC50: 18.1 µM (active)

## OC1=C(/C=N/c2ccc(O)cc2)CCCC1
Large T antigen
  IC50: 6.66 µM (active)
[11]
  IC50: 12.5 µM (active)

## Cc1ccc2nc(N=C(N)NC(=O)NC3CCCCC3)nc(C)c2c1
Streptokinase A
  EC50: 52.7 µM (active)
[2]
  IC50: > 20 µM (inactive)
